From patent US20240207258A1, “HETEROCYCLIC PDK1 INHIBITORS FOR USE TO TREAT CANCER” (Viracta Therapeutics, Inc., priority 2015, published 2024) come the findings set out here.

One assay deals with U-937. Description: MTS cell proliferation assay, U-937. It is filed as cell-based. Particulars: Homo sapiens; U-937, 72 hr. The method, then:
(§1) Cell proliferation was measured using the CellTiter 96 Aqueous Non-Radioactive Cell Proliferation Assay (Promega). The CellTiter 96® AQueous Assay is composed of solutions of a tetrazolium compound [3-(4,5-dimethylthiazol-2-yl)-5-(3-carboxymethoxyphenyl)-2-(4-sulfophenyl)-2H-tetrazolium, inner salt; MTS] and an electron coupling reagent (phenazine methosulfate) PMS. MTS is bioreduced by cells into a formazan product that is soluble in tissue culture medium. The absorbance of the formazan product at 490 nm can be measured directly from assay plates without additional processing. The quantity of formazan product as measured by the amount of 490 nm absorbance is directly proportional to the number of living cells in culture. Cells were seeded into 96-well or 384-well clear plates in a volume of 200 μL (96-well) or 50 μL (384-well) at optimized densities ranging from 1,000 to 40,000 cells per well for 96-well plates or 1,200 to 25,000 cells per well for 384-well plates depending on cell-line. After 4-6 hr recovery, serially diluted compounds in DMSO were added to the cells using (0.1% v/v final DMSO concentration). Cells were then grown at 37° C. in a humidified incubator with 5% CO2 for 72 hr. A 20:1 [3-(4,5-dimethylthiazol-2-yl)-5-(3-carboxymethoxyphenyl)-2-(4-sulfophenyl)-2H-tetrazolium](MTS):phenazine methosulfate (PMS) solution in DPBS was made immediately before use, added to each well, and cells were incubated for 1.5 hr at 37° C. The absorbance at 490 nm was then measured using a platereader. Absorbance values were normalized as percent of control (cells incubated in the presence of 0.1% v/v DMSO). Sigmoidal dose-response curves were plotted using log(inhibitor) vs. response—Variable slope (four parameters) model with a top value constrained to 100% (GraphPad Prism version 6.00 for Windows, GraphPad Software, La Jolla California USA). […] Curves for compounds that reached a plateau were matched exactly to the measurement points. […]
For orientation: Formazan colour is commonly taken as a measure of viable cells.

In a further assay the test system is U-266. The experiment in a line: MTS cell proliferation assay, U-266. To be noted: Homo sapiens; U-266, 72 hr. It is filed as cell-based. On the procedure: as §1
Another assay has as its system JJN3. The experiment in a line: MTS cell proliferation assay, JJN3. It is filed as cell-based. To be noted: Homo sapiens, JJN-3; JJN3, 72 hr. The method, then:
as §1

The test system of a further assay is MV4-11 tumor xenografts. Description: MV4-11 tumor xenograft efficacy. Format: in vivo, mice. The text has this:
MV4-11 cells were propagated in vitro and implanted subcutaneous into the right flank of 9-week old female NCr nu/nu mice as described in Example 7. The animals were fed ad libitum water (reverse osmosis, 1 ppm Cl), and NIH 31 Modified and Irradiated Lab Diet® consisting of 18.0% crude protein, 5.0% crude fat, and 5.0% crude fiber. Fourteen days after tumor implantation, designated as Day 1 of the study, the animals were sorted into seven groups each consisting of ten mice with individual tumor volumes of 108 to 288 mm^3 and group mean tumor volumes (MTV) of 162 to 165 mm^3. On Day 1 of the study, dosing by oral gavage was initiated as follows: The dosing volume was 0.100 mL per 20 grams of body weight (5 mL/kg), and was scaled to the body weight of each individual animal. Group 1 mice received vehicle and served as the control group. Groups 2-4 received Compound 1 at 5, 11, and 25 mg/kg, respectively, qd×21. Groups 5-7 received Compound 2 at 5, 11, and 25 mg/kg, respectively, qd×21. Dosing solutions were prepared weekly by dissolving the appropriate amount of powder in 1% […] (DMA) in Labrasol® (vehicle) to yield a 5 mg/mL solution. The 5 mg/mL solution provided the 25 mg/kg dosage in a dosing volume of 5 mL/kg. An aliquot of the 5 mg/mL solution was diluted in the vehicle to concentrations of 2.2 and 1 mg/mL which provided the 11 and 5 mg/kg dosages, respectively, in a dosing volume of 5 mL/kg.
Tumors were measured using calipers twice per week. The study endpoint was defined as a mean tumor volume of 2000 mm^3 in the control group or 22 days, whichever came first and the study was terminated on Day 22. Animals were weighed daily on Days 1-5, then twice per week until the completion of the study. The mice were observed frequently for overt signs of any adverse, treatment related (TR) side effects, and clinical signs were recorded when observed. Individual body weight loss was monitored as per protocol and any animal whose weight exceeded the limits for acceptable body weight loss was euthanized. Group mean body weight loss also was monitored as per protocol. Dosing was to be suspended in any group whose weight exceeded the limits for acceptable mean body weight loss. If mean body weight recovered, then dosing may be resumed in that group, but at a lower dosage or less frequent dosing schedule. Acceptable toxicity was defined as a group mean body weight loss of less than 20% during the study and not more than 10% treatment-related (TR) deaths. Any dosing regimen resulting in greater toxicity was considered above the maximum tolerated dose (MTD). A death was classified as TR if attributable to treatment side effects as evidenced by clinical signs and/or necropsy, or may also be classified as TR if due to unknown causes during the dosing period or within 14 days of the last dose. A death was classified as non-treatment-related (NTR) if there was no evidence that death was related to treatment side effects.
Treatment efficacy was determined using data from the final day. The MTV (n) (the median tumor volume for the number of animals, n) on the final day was determined for each group. Group 1 mice that received vehicle p.o. qd×21 served as the control group for analysis of tumor growth inhibition (TGI) determined according to the formula % TGI=[1−(MTVdrug-treated/MTVcontrol)]×100. Treatment efficacy was also determined from the incidence and magnitude of regression responses observed during the study. Treatment may cause partial regression (PR) or complete regression (CR) of the tumor in an animal. In a PR response, the tumor volume was 50% or less of its Day 1 volume for three consecutive measurements during the course of the study, and equal to or greater than 13.5 mm^3 for one or more of these three measurements. In a CR response, the tumor volume was less than 13.5 mm^3 for three consecutive measurements during the course of the study.

In general, EC50 refers to the concentration needed to bring the measured effect to its halfway point. Low readings indicate greater potency, high ones weaker potency. For the molecule `C[C@H](NC(=O)c1nc(C#N)cnc1NCc1ccc(-c2cnc3[nH]nc(N)c3n2)cc1)c1ccc(F)c(F)c1` [Compound 1, 3-[4-(3-Amino-1H-pyrazolo[3,4-b]pyrazin-5-yl)-benzylamino]-6-cyano-pyrazine-2-carboxylic acid [1-(3,4-difluoro-phenyl)-ethyl]-amide], the EC50 was determined as 123 nM in the assay on U-937, 226 nM in the assay with U-266 and 846 nM in the assay on JJN3. For the same molecule, the “MTV (median tumor volume) on Day 22” value amounted to 446 mm^3 in the assay with MV4-11 tumor xenografts (5 mg/kg p.o. qd×21), 288 mm^3 in the assay on MV4-11 tumor xenografts (11 mg/kg p.o. qd×21) and 63 mm^3 in the assay with MV4-11 tumor xenografts (25 mg/kg p.o. qd×21). In addition, the “TGI (tumor growth inhibition)” value with MV4-11 tumor xenografts (5 mg/kg p.o. qd×21, Day 22) was found to be 69%; with MV4-11 tumor xenografts (11 mg/kg p.o. qd×21, Day 22), 80%; with MV4-11 tumor xenografts (25 mg/kg p.o. qd×21, Day 22), 96%. Besides, the “regression responses (PRs)” value in the assay with MV4-11 tumor xenografts (5 mg/kg p.o. qd×21, ten mice) is given as “no regression responses”; in the assay with MV4-11 tumor xenografts (11 mg/kg p.o. qd×21, ten mice) it was “no regression responses”; in the assay with MV4-11 tumor xenografts (25 mg/kg p.o. qd×21, ten mice), “seven”.
For `CNc1n[nH]c2ncc(-c3ccc(CNc4ncc(C#N)nc4C(=O)N[C@@H](C)c4ccc(F)c(F)c4)cc3)cc12` [Compound 2, 6-Cyano-3-[4-(3-methylamino-1H-pyrazolo[3,4-b]pyridin-5-yl)-benzylamino]-pyrazine-2-carboxylic acid [1-(3,4-difluoro-phenyl)-ethyl]-amide], the EC50 was 74 nM in the assay with U-937, 130 nM in the assay with U-266 and 453 nM in the assay on JJN3. Moreover, the figures for the “MTV (median tumor volume) on Day 22” value in the assay on MV4-11 tumor xenografts (5 mg/kg p.o. qd×21), in the assay with MV4-11 tumor xenografts (11 mg/kg p.o. qd×21) and with MV4-11 tumor xenografts (25 mg/kg p.o. qd×21) were 320 mm^3, 108 mm^3 and 40 mm^3, respectively. Also, the “TGI (tumor growth inhibition)” value with MV4-11 tumor xenografts (5 mg/kg p.o. qd×21, Day 22) is listed as 77%; in the assay with MV4-11 tumor xenografts (11 mg/kg p.o. qd×21, Day 22) it was 92%; in the assay on MV4-11 tumor xenografts (25 mg/kg p.o. qd×21, Day 22), 97%. Besides, the “regression responses (PRs)” value is listed as “no regression responses” in the assay with MV4-11 tumor xenografts (5 mg/kg p.o. qd×21, ten mice); “three” in the assay with MV4-11 tumor xenografts (11 mg/kg p.o. qd×21, ten mice); “eight” in the assay on MV4-11 tumor xenografts (25 mg/kg p.o. qd×21, ten mice).
